Here are results for one molecule from US9833431B2, “Pharmaceutical combinations for the treatment of cancer” (Pitney Pharmaceuticals Pty Limited, priority 2013, dated 2017).

One data set relates to U87. The experiment in a line: SRB cytotoxicity assay, U87 cells. Format: cell-based, human. The following applies: 72 h. How it is done:
(§1) All cell lines described herein were purchased from ATCC. […] Control cultures were treated with ethanol alone.
Background: In SRB staining, fixed cells bind dye roughly in proportion to their protein.

The test system of another data set is U251. The data set is described as follows: SRB cytotoxicity assay, U251 cells. Format: cell-based. The following applies: Homo sapiens, U-251, U251, malignant, glial, 72 h. How it is done:
as §1

In another data set the test system is HUVEC. The data set is described as follows: SRB cytotoxicity assay, HUVEC. The settings on record: Homo sapiens, non-malignant, endothelial, 72 h. The format is cell-based. How it is done: as §1
The test system of the next data set is C170. The data set is described as follows: SRB cytotoxicity assay, C170 cells. Format: cell-based. How it is done:
as §1

For another data set, the system named is SKOV-3. The experiment in a line: SRB cytotoxicity assay, SKOV-3 cells. Format: cell-based. The following applies: Homo sapiens, SK-OV-3, SKOV-3, malignant, ovarian, 72 h. How it is done: as §1
The next data set deals with MCF-7. The data set is described as follows: SRB cytotoxicity assay, MCF-7 cells. The format is cell-based. The following applies: Homo sapiens, MCF7, 72 h, MCF-7, malignant, breast. How it is done:
as §1

A further data set has as its system CHO. The data set is described as follows: SRB cytotoxicity assay, CHO cells. The settings on record: Cricetulus griseus, immortalised, ovarian, 72 h. Format: cell-based. How it is done:
as §1

For another data set, the system named is 28 malignant cell lines. The data set is described as follows: SRB cytotoxicity assay, summary over malignant cell lines. The format is cell-based. The settings on record: all 28 malignant cell lines tested, with the exception of CFPAC-1 and SKOV-3; summary of Table 3; read-out: IC50 proliferation. How it is done: as §1

As to `C[C@](C#N)(COc1cc(C#N)ccc1C(F)(F)F)NC(=O)c1ccc(SC(F)(F)F)cc1` [MPL, N-[(1S)-1-cyano-2-(5-cyano-2-trifluoromethyl-phenoxy)-1-methyl-ethyl]-4-trifluoromethylsulfanyl-benzamide], the IC50 in the data set with U87 (Homo sapiens, U-87 MG, U87, malignant, glial, SRB) was 18 ± 7.1 µM; in the data set on U251 it was 17 ± 1.2 µM; in the data set with HUVEC, 87 µM; in the data set with C170 (Homo sapiens, C170, malignant, colorectal, SRB, 72 h) it was roughly 20 µM; in the data set on SKOV-3 it was 31.2 ± 0.8 µM; with MCF-7, 15.5 µM. Further, the IC50 in the data set with CHO is 34.6 ± 0.8 µM; in the data set on 28 malignant cell lines it was 2 to 25 µM. The “Mpl Alone, Mpl (x/X) Inhibition” value in the data set with U87 (U87 Glioblastoma, 5 μM MPL, x=events, X=experiments) is 1/1. Further, the “significant cytotoxic effect of MPL alone” value in the data set on C170 (C170 cells, MPL (5 μM)) was “one of two experiments”.
